Reference: patent publication US6113907A, “Pharmaceutical grade St. John's Wort” (priority 1997, dated 2000)
Read-outs that look alike come from different tables or passages of the source.

What was measured:
protein kinase C = settings: cited from earlier work
MAO = settings: cited from earlier work
murine cytomegalovirus = settings: cited from earlier work
muscarinic M1 receptor = target: T1, muscarinic M1 receptor (Bos taurus, UniProt F1N5C5); assay: muscarinic M1 binding, [3H]-Pirenzepine, bovine striatal membranes; settings: read-out: MuscM1 Binding % inhibition (PharmaPrint range)
T1 construct: Using receptors derived from bovine striatal membranes; from tissue; host or cells: bovine striatal membranes

opiate receptor = opiate receptor non-selective, [3H] naloxone, rat forebrain; format: binding
Description: To determine the inhibitory activity of the substances for the dopamine receptor (dp) the following assay was preformed. A partial receptor preparation was prepared from bovine striatal membranes using [^3 H] spiperone as the ligand at a final concentration of 0.3 nM. To determine non-specific binding cold spiperone was tested at 1 μM. The reactions were carried out in 50 mM Tris-HCl (pH 7.7) containing 120 mM NaCl, 5 mM KCl, 2 mM CaCl2 and 1 mM MgCl2 at 37° C. for 60 minutes. […] The inhibitory properties of the substances for binding of ligand to the adenosine receptor (ADNS) was measured using a partially purified receptor preparation made from bovine striatal membranes. The radioligand used was [^3 H] 5'-N-ethylcarboxyamidoadenosine (NECA) at a final ligand concentration of 4 nM. Non-specific binding was determined in the presence of 10 μM NECA. The reactions were carried out in 50 mM Tris-HCL (pH 7.7) for 60 minutes at 25° C. […] To measure the inhibitory activity of the substances for the opiate receptor (Opiate) receptor was partially purified from rat forebrains. [^3 H] naloxone at 1 nM as the ligand used. Non-specific binding was determined in the presence of 1 μM of naloxone. […] Non-specific binding was determined in the presence of 1 μM nicotine sulfate. […] Non-specific binding was determined in the presence of 1 μM Tyr-° CRF. […]

NMDA = assay: Receptor Binding by Hypericin, NMDA
Description: (§1) Through an NIMH screening contract (NovaScreen™, Baltimore, Md.) a commercially available crude extract from the fresh flowers and buds of Hypericum perforatum [1:1.5; hydro-alcohol (40:60) made from flowering tops; Herb Pharm] containing ~0.1% hypericin was dried under vacuum, dissolved in 4% DMSO, and diluted to an initial concentration of 50 mg/ml for in vitro screening in a battery of 39 receptor assays and two enzyme systems (Table 5, below).

GABAA receptor = assay: GABAA agonist site binding assay, [3H]-GABA, bovine cerebellar membranes; settings: 10^-4 M
Description: The reference literature compounds for this assay include diazepam and muscimol (Sigma Chemical Company).
The reaction is terminated by rapid vacuum filtration onto glass fiber filters. Radioactivity trapped onto the filters is determined and compared to control values in order to ascertain any interactions of test compound with the GABAA receptor.

[1] = test system: equine infectious anemia virus; settings: cited from earlier work
adenosine receptor = adenosine receptor non-selective (ADNS), [3H] NECA, bovine striatal membranes; format: binding
Description: To determine the inhibitory activity of the substances for the dopamine receptor (dp) the following assay was preformed. A partial receptor preparation was prepared from bovine striatal membranes using [^3 H] spiperone as the ligand at a final concentration of 0.3 nM. To determine non-specific binding cold spiperone was tested at 1 μM. The reactions were carried out in 50 mM Tris-HCl (pH 7.7) containing 120 mM NaCl, 5 mM KCl, 2 mM CaCl2 and 1 mM MgCl2 at 37° C. for 60 minutes. […] The inhibitory properties of the substances for binding of ligand to the adenosine receptor (ADNS) was measured using a partially purified receptor preparation made from bovine striatal membranes. The radioligand used was [^3 H] 5'-N-ethylcarboxyamidoadenosine (NECA) at a final ligand concentration of 4 nM. Non-specific binding was determined in the presence of 10 μM NECA. The reactions were carried out in 50 mM Tris-HCL (pH 7.7) for 60 minutes at 25° C. […] To measure the inhibitory activity of the substances for the opiate receptor (Opiate) receptor was partially purified from rat forebrains. [^3 H] naloxone at 1 nM as the ligand used. Non-specific binding was determined in the presence of 1 μM of naloxone. The assays were carried out in 50 mM Tris-HCl (pH 7.4) at 25° C. for 90 minutes. […] The neuronal nicotinic receptor (Nicotinic Neuronal) was assayed using receptors partially purified from rat cortical membranes. The radioligand used was [^3 H] N-methylcarbamylcholine iodide at a final ligand concentration of 5 nM. Non-specific binding was determined in the presence of 1 μM nicotine sulfate. The assay reactions were carried out in 50 mM Tris-HCl (pH 7.4) containing 120 mM NaCl, 5 mM KCl, 2 mM CaCl2, 1 mM MgCl2, and 3 μM atropine sulfate at 4° C. for 60 minutes. […] To determine how the substances inhibit the corticotropin releasing factor (CRF) partially purified receptor from rat cortical membranes was used as the receptor preparation. […] Tyr-° CRF at a final ligand concentration of 0.1 nM. Non-specific binding was determined in the presence of 1 μM Tyr-° CRF. The reactions were carried out in 50 mM HEPES containing 10 mM MgCl2, 2 mM EGTA, 0.12 TIU/ml aprotinin and 0.3% BSA at 25° C. for 120 minutes. The reaction is terminated by centrifugation in a Sorvall centrifuge for 15 minutes at 4° C.

MAOB = assay: NIMH/NovaScreen screen, MAOB; format: biochemical; settings: up to 0.1 mM
Description: as §1

[2] = test system: human immunodeficiency virus type 1 (HIV-1); settings: cited from earlier work
[3] = test system: Receptor tyrosine kinase of epidermal growth factor; settings: cited from earlier work
[4] = mice; cited from earlier work
serotonin transporter = target: T2, serotonin transporter (Rattus norvegicus, UniProt P31652); assay: serotonin transporter assay, [125I]-RTI-121, rat cerebral cortical membranes; format: binding
T2 construct: Cerebral cortical membranes derived from male Wistar rats; from tissue; host or cells: cerebral cortical membranes of male Wistar rats

MAOA = target: T3, MAOA (Rattus norvegicus, UniProt P21396); assay: NIMH/NovaScreen screen, MAOA; format: biochemical
T3 sequence (P21396 1-526): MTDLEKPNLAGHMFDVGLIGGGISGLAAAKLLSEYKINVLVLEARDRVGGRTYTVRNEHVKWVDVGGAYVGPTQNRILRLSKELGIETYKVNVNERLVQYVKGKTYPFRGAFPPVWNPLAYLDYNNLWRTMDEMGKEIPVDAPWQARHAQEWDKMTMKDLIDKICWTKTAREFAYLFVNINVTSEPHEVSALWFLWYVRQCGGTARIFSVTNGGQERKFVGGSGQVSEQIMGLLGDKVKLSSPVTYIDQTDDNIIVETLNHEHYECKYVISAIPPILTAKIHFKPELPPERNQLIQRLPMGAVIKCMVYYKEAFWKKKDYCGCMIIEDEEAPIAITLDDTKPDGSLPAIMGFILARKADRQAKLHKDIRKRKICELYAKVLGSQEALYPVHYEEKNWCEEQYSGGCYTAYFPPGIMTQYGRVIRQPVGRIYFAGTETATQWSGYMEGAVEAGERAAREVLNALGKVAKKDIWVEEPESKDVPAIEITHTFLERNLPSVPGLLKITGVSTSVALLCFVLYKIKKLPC

glioma cells = settings: tissue culture; cited from earlier work

T2 sequence (P31652 whole entry): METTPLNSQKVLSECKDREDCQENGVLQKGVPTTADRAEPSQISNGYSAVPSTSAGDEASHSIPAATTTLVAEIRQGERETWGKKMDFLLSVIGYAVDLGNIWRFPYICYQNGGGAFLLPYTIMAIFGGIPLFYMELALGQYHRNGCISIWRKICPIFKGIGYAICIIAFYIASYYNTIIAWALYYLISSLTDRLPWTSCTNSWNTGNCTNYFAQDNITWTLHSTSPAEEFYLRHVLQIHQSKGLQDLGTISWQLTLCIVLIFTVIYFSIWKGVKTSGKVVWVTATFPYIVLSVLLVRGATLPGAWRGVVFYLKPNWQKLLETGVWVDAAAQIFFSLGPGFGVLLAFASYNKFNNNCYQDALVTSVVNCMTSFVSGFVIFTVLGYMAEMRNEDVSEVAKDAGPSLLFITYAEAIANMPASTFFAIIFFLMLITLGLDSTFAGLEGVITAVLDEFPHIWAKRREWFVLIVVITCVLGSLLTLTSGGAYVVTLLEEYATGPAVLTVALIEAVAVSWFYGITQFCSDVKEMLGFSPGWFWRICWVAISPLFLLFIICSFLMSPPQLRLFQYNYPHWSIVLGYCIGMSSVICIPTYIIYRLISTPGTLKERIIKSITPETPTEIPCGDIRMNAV
T1 sequence (F1N5C5 1-460): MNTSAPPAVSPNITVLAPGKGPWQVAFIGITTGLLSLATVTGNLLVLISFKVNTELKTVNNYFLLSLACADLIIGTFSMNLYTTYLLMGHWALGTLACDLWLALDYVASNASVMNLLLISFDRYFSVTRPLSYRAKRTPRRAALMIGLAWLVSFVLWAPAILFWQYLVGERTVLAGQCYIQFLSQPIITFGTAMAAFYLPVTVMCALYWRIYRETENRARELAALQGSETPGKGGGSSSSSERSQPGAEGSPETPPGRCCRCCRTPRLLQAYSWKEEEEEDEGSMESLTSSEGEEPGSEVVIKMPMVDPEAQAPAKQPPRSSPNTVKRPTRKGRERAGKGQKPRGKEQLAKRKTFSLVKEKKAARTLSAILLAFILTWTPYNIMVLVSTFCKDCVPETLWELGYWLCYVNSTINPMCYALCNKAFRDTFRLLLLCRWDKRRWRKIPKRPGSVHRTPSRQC

## Cc1cc(O)c2c(=O)c3c(O)cc(O)c4c5c(O)cc(O)c6c(=O)c7c(O)cc(C)c8c1c2c(c34)c(c78)c65 [Hypericin, hypericin]
Protein kinase C
  protein kinase C IC50: 1.7 µg/mL
MAO; Suzuki et al., 80% purity
  concentration inhibiting MAO: 50 µg/mL
MAO
  confirmation of MAO inhibition: failed to confirm this effect
Murine cytomegalovirus
  activity against murine cytomegalovirus: Activity has also been reported
Muscarinic M1 receptor
  inhibition at 100 µM: 80 ± 20%
Opiate receptor; 10^-4, Table 9I, 100 µM
  OPNS: 44%
Opiate receptor; 10^-4 M
  Opiate NS % inhibition (PharmaPrint range): 70 ± 35%
NMDA; 1 μM
  % Inhibition NMDA: 48.5%
NMDA; 10 μM
  % Inhibition NMDA: 81.7%
NMDA; 100 μM
  % Inhibition NMDA: -20.7%
NMDA; .001 μM
  % Inhibition NMDA: 10.5%
NMDA; .01 μM
  % Inhibition NMDA: 24.5%
NMDA; .1 μM
  % Inhibition NMDA: -0.3%
NMDA; read-out: Ki NMDA
  Ki: ~1000 nM
NMDA; read-out: ~Ki NMDA (Table 7)
  Ki: ~1100 nM
GABAA receptor
  GABAA % inhibition (PharmaPrint range): 30 ± 15%
[1]
  activity against equine infectious anemia virus: Activity has also been reported
Adenosine receptor; 10^-4, 60 min, 100 µM
  ADNS: 70%
Adenosine receptor; 10^-4 M
  AD,NS % inhibition (PharmaPrint range): 70 ± 20%
MAOB
  MAO-B inhibition: lacked significant MAOA or MAO-^B inhibition
[2]
  inhibition of HIV-1: inhibit
[3]
  receptor tyrosine kinase activity of epidermal growth factor: inhibited
[4]
  antiviral activity in vivo: show antiviral activity in vivo (mice)
Serotonin transporter; 10^-4, read-out: Sero
  inhibition at 100 µM: 51%
Serotonin transporter; 10^-4 M, read-out: Sero % inhibition (PharmaPrint range)
  inhibition at 100 µM: 51 ± 2%
Serotonin transporter; read-out: Sero (concentration)
  IC50: 4 µM
MAOA; 10 μM
  inhibition at 10 µM: 27%
MAOA; 100 μM
  inhibition at 100 µM: 20.8%
MAOA; up to 0.1 mM
  MAOA inhibition: lacked significant MAOA or MAO-^B inhibition
Glioma cells
  growth of glioma cells: inhibit the growth of glioma cells
